Values quoted from earlier work in patent US8119691B2, “Method for treating airway hyper-responsiveness with lipoxin analogs” (National Institutes of Health (NIH), priority 2001, dated 2012).

Key:
[1] = target: T1, recombinant cysLT1 receptors (Homo sapiens, UniProt Q9Y271); settings: CHO cells, in vitro (ref. 12); cited from earlier work
T1 construct: host or cells: Chinese hamster ovary cells (recombinant expression)
T1 sequence (Q9Y271 1-337): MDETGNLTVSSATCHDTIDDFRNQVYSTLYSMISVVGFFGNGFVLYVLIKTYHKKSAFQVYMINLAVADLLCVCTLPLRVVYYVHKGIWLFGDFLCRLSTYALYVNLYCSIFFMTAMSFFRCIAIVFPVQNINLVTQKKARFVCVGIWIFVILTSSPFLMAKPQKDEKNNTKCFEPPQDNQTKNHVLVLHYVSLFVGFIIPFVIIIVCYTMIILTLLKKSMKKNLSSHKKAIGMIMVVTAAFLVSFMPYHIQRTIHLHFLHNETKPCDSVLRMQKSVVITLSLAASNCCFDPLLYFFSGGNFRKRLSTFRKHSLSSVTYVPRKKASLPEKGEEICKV

human asthmatics = settings: native LXA4 given to human asthmatics (ref. 22); cited from earlier work
airway smooth muscle = settings: in vitro (ref. 23); cited from earlier work
eosinophil = settings: cited from earlier work

CCCCC[C@H](O)/C=C/C=C\C=C\C=C\[C@@H](O)[C@@H](O)CCCC(=O)O [LXA4, Lipoxin A4]
competition for binding at LTD4 recognition sites and recombinant cysLT1 receptors [1]: compete for binding with high affinity at LTD4 recognition sites | LTC4-stimulated airway hyper-responsiveness (human asthmatics): inhibits LTC4-stimulated airway hyper-responsiveness | LTD4-initiated constriction of airway smooth muscle (airway smooth muscle): blocks LTD4-initiated constriction of airway smooth muscle in vitro | eosinophil chemotaxis (eosinophil): directly inhibits eosinophil chemotaxis
